Experimental data reported in patent US7851467B2, “Carbamate compounds as 5-HT4 receptor agonists” (Theravance, Inc., priority 2005, dated 2010).

Molecular target: T1, human 5-HT4(c) receptor (Homo sapiens, UniProt Q13639)
T1 construct: expressed in transfected cells; host or cells: HEK-293
Assay: Whole-cell cAMP accumulation flashplate assay with HEK-293 cells expressing human 5-HT4(c) receptors
Type: cell-based
Conditions: cell line (1) having a density of about 0.5-0.6 μmol/mg protein, read-out: pEC50 value (converted)
Method: Assay 3: Whole-Cell cAMP Accumulation Flashplate Assay with HEK-293 Cells Expressing Human 5-HT4(c) Receptors
In this assay, the functional potency of a test compound was determined by measuring the amount of cyclic AMP produced when HEK-293 cells expressing 5-HT4 receptors were contacted with different concentrations of test compound.
HEK-293 (human embryonic kidney) cells stably-transfected with cloned human 5-HT4(c) receptor cDNA were prepared expressing the receptor at two different densities: (1) at a density of about 0.5-0.6 pmol/mg protein, as determined using a [^3H]-GR113808 membrane radioligand binding assay, and (2) at a density of about 6.0 pmol/mg protein. […]
Cells were grown to roughly 60-80% confluency. […] The cells were counted with a Coulter counter (count above 8 μm, flask yield was 1-2×10^7 cells/flask). […]
Cells were grown and prepared as described above. […] Bound radioactivity was quantified by scintillation proximity spectroscopy using the Topcount (Packard BioScience Co., Meriden, Conn.).
The amount of cAMP produced per mL of reaction was extrapolated from the cAMP standard curve, according to the instructions provided in the manufacturer's user manual. Data were analyzed by nonlinear regression analysis with the GraphPad Prism Software package using the 3-parameter sigmoidal dose-response model (slope constrained to unity). […]

T1 sequence (Q13639 1-380 isoform Q13639-4): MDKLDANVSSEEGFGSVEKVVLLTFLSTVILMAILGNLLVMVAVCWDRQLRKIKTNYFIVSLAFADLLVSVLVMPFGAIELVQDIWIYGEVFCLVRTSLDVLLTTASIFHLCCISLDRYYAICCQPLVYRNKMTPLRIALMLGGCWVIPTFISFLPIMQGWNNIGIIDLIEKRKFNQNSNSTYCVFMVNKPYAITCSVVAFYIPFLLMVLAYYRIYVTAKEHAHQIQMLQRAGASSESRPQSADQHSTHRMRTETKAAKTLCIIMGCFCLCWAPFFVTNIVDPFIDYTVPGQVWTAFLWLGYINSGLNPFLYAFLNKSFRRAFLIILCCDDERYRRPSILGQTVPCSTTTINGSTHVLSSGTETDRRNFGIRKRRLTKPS

CC(C)n1c(=O)n(C(=O)N[C@H]2C[C@H]3CC[C@@H](C2)N3CCCOC(=O)N2CCN(C(=O)C3CCCO3)CC2)c2ccccc21 (stereo partly drawn) [Example 1, 4-(tetrahydrofuran-2-carbonyl)piperazine-1-carboxylic acid 3-{(1S,3R,5R)-3-[(3-isopropyl-2-oxo-2,3-dihydrobenzoimidazole-1-carbonyl)amino]-8-aza-bicyclo[3.2.1]oct-8-yl}propyl ester]
EC50: 3.98 nM
